Experimental data published in patent publication US20220249447A1, “CF3-, OCF3-, SCF3-, and SF5-Containing Antibacterial Agents” (Purdue Research Foundation, priority 2019, published 2022).
≈ marks a conversion by molar mass, not a printed value.

Tests used:
[1] = test system: Neisseria gonorrhea strain 181; assay: MIC against Neisseria gonorrhea strain 181; assay type: cell-based
Procedure: (§1) Bacteria were cultured in cation-adjusted Mueller Hinton Broth (for strains in Tables 1-3) or Brain Heart Infusion broth (for Enterococcus faecium) or Tryptic Soy Broth (all other bacteria) in a 96-well plate at 37° C. for at least 20 hours. The MIC was classified as the lowest concentration where no visual growth of bacteria was observed. The minimum bactericidal concentration (MBC) was tested by spotting 4 μL from wells with no growth onto Tryptic Soy Agar (TSA) plates. Plates were incubated at 37° C. for at least 18 hours before recording the MBC.

[2] = test system: C. difficile ATCC BAA 1801; assay: MIC against C. difficile ATCC BAA 1801; assay type: cell-based; settings: for MIC: Clostridioides difficile, BAA1801, read-out: MIC C. difficile ATCC BAA 1801
Procedure: as §1

[3] = test system: S. aureus; assay: MIC, broth microdilution, S. aureus; assay type: cell-based; settings: Staphylococcus aureus
Procedure: as §1

[4] = test system: MRSA ATCC 33592; assay: MIC, broth microdilution, MRSA ATCC 33592; assay type: cell-based, methicillin-resistant S. aureus; settings: Staphylococcus aureus
Procedure: All MRSA isolates were acquired from BEI Resources. The remaining bacteria were purchased from the American Type Culture Collection (ATCC).
as §1

[5] = test system: L. monocytogenes ATCC 19115; assay: MIC, broth microdilution, L. monocytogenes ATCC 19115; assay type: cell-based; settings: Listeria monocytogenes, ATCC19115
Procedure: as §1

[6] = test system: C. difficile NR-13432 (isolate 6); assay: MIC against C. difficile NR-13432 (isolate 6); assay type: cell-based; settings: for MIC: Clostridioides difficile, read-out: MIC C. difficile NR-13432 (isolate 6)
Procedure: as §1

[7] = test system: C. difficile ATCC 43255; assay: MIC against C. difficile ATCC 43255; assay type: cell-based; settings: for MIC: Clostridioides difficile, ATCC43255, read-out: MIC C. difficile ATCC 43255
Procedure: as §1

[8] = test system: C. difficile NR-32904 (P30); assay: MIC against C. difficile NR-32904 (P30); assay type: cell-based; settings: for MIC: Clostridioides difficile, read-out: MIC C. difficile NR-32904 (P30)
Procedure: as §1

[9] = test system: VRE ATCC 51575; assay: MIC, broth microdilution, VRE ATCC 51575; assay type: cell-based; settings: Enterococcus
Procedure: as §1

[10] = test system: C. difficile NR-32883 (P2); assay: MIC against C. difficile NR-32883 (P2); assay type: cell-based; settings: for MIC: Clostridioides difficile, read-out: MIC C. difficile NR-32883 (P2)
Procedure: as §1

[11] = test system: C. difficile NR-32891 (P13); assay: MIC against C. difficile NR-32891 (P13); assay type: cell-based; settings: for MIC: Clostridioides difficile, read-out: MIC C. difficile NR-32891 (P13)
Procedure: as §1

[12] = test system: C. difficile NR-13435 (isolate 9); assay: MIC against C. difficile NR-13435 (isolate 9); assay type: cell-based; settings: for MIC: Clostridioides difficile, read-out: MIC C. difficile NR-13435 (isolate 9)
Procedure: as §1

[13] = test system: C. difficile NR-32895 (P19); assay: MIC against C. difficile NR-32895 (P19); assay type: cell-based; settings: for MIC: Clostridioides difficile, read-out: MIC C. difficile NR-32895 (P19)
Procedure: as §1

[14] = test system: E. faecalis ATCC 29212; assay: MIC, broth microdilution, E. faecalis ATCC 29212; assay type: cell-based; settings: Enterococcus faecalis, ATCC29212
Procedure: as §1

[15] = test system: MRSA USA300 cells; assay: Time-kill assay; assay type: cell-based; settings: for Δlog2 CFU/mL: MRSA USA300, 3× MIC or 6× MIC, up to 24 hours
Procedure: The time-kill analysis was performed as previously described^29. […] Aliquots (100 μL) were collected from each treatment after 0, 2, 4, 8, 12, and 24 hours of incubation at 37° C. and subsequently serially diluted in phosphate-buffered saline (PBS). Bacteria were then transferred to TSA plates and incubated at 37° C. for 18-20 hours before viable CFU/mL was determined (see FIG. 2).

Row | SMILES | MIC [1] [µg/mL] | MIC [2] [µg/mL] | MIC [3] [µg/mL] | MIC [4] [µg/mL] | MIC [5] [µg/mL] | MIC [6] [µg/mL] | MIC [7] [µg/mL] | MIC [8] [µg/mL] | MIC [9] [µg/mL] | MIC [10] [µg/mL] | MIC [11] [µg/mL] | MIC [12] [µg/mL] | MIC [13] [µg/mL] | MIC [14] [µg/mL] | other results
1 | O=C(Nc1nnc(-c2cccc(Cl)c2)o1)c1ccc(S(F)(F)(F)(F)F)cc1 [HSGN-259, N-(5-(3-chlorophenyl)-1,3,4-oxadiazol-2-yl)-4-(pentafluoro-k6-sulfaneyl)benzamide] | 1 (≈ 2.35 µM) | < 0.003 | 0.0625 (≈ 0.147 µM) | 0.0313 (≈ 0.0735 µM) | – | – | – | – | – | – | – | – | – | – | –
2 | O=C(Nc1nnc(-c2ccc(Cl)s2)o1)c1ccc(OC(F)(F)F)cc1 [HSGN-238, N-(5-(5-chlorothiophen-2-yl)-1,3,4-oxadiazol-2-yl)-4-(trifluoromethoxy)benzamide] | 0.125 (≈ 0.321 µM) | 0.03 (≈ 0.077 µM) | 0.25 (≈ 0.641 µM) | 0.25 (≈ 0.641 µM) | 0.5 (≈ 1.28 µM) | 0.03 (≈ 0.077 µM) | 0.06 (≈ 0.154 µM) | 0.015 (≈ 0.0385 µM) | 1 (≈ 2.57 µM) | 0.007 (≈ 0.018 µM) | 0.06 (≈ 0.154 µM) | 0.015 (≈ 0.0385 µM) | 0.015 (≈ 0.0385 µM) | 1 (≈ 2.57 µM) | –
3 | O=C(Nc1nnc(-c2cccc(F)c2)o1)c1ccc(OC(F)(F)F)cc1 [HSGN-237, N-(5-(3-fluorophenyl)-1,3,4-oxadiazol-2-yl)-4-(trifluoromethoxy)benzamide] | 0.125 (≈ 0.34 µM) | 0.06 (≈ 0.163 µM) | 0.5 (≈ 1.36 µM) | 0.5 (≈ 1.36 µM) | 0.5 (≈ 1.36 µM) | 0.06 (≈ 0.163 µM) | 0.03 (≈ 0.0817 µM) | 0.03 (≈ 0.0817 µM) | 1 (≈ 2.72 µM) | 0.03 (≈ 0.0817 µM) | 0.125 (≈ 0.34 µM) | 0.03 (≈ 0.0817 µM) | 0.03 (≈ 0.0817 µM) | 1 (≈ 2.72 µM) | –
4 | CC(=O)NC[C@H]1CN(c2ccc(N3CCOCC3)c(F)c2)C(=O)O1 [Linezolid, reference compound] | – | – | – | – | – | – | – | – | – | – | – | – | – | – | Bactericidal/Bacteriostatic [15]: Bacteriostatic; Δlog2 CFU/mL [15]: 1.7
5 | CC[C@H]1OC(=O)[C@H](C)[C@@H](O[C@H]2C[C@@](C)(OC)[C@@H](O)[C@H](C)O2)[C@H](C)[C@@H](O[C@@H]2O[C@H](C)C[C@H](N(C)C)[C@H]2O)[C@](C)(O)C[C@@H](C)CN(C)[C@H](C)[C@@H](O)[C@]1(C)O [Azithromycin, reference compound] | 256 (≈ 342 µM) | – | – | – | – | – | – | – | – | – | – | – | – | – | –
6 | O=C(Nc1nnc(-c2ccc(Cl)cc2Cl)o1)c1ccc(SC(F)(F)F)cc1 [HSGN-248, N-(5-(2,4-dichlorophenyl)-1,3,4-oxadiazol-2-yl)-4-((trifluoromethyl)thio)benzamide] | > 128 | 0.015 (≈ 0.0345 µM) | 0.5 (≈ 1.15 µM) | 0.25 (≈ 0.576 µM) | – | – | – | – | – | – | – | – | – | – | –
7 | O=C(Nc1nnc(-c2cccs2)o1)c1ccc(S(=O)(=O)C(F)(F)F)cc1 [HSGN-103] | – | – | – | – | – | – | – | – | – | – | – | – | – | – | MIC C. difficile NR-13432 (isolate 6) [6]: 0.5 µg/mL (≈ 1.24 µM); MIC C. difficile ATCC 43255 [7]: 0.5 µg/mL (≈ 1.24 µM); MIC C. difficile ATCC BAA 1801 [2]: 0.5 µg/mL (≈ 1.24 µM); MIC C. difficile NR-32904 (P30) [8]: 0.5 µg/mL (≈ 1.24 µM); MIC C. difficile NR-32883 (P2) [10]: 0.5 µg/mL (≈ 1.24 µM); MIC C. difficile NR-32891 (P13) [11]: 0.5 µg/mL (≈ 1.24 µM); MIC C. difficile NR-13435 (isolate 9) [12]: 0.5 µg/mL (≈ 1.24 µM); MIC C. difficile NR-32895 (P19) [13]: 0.5 µg/mL (≈ 1.24 µM); Bactericidal/Bacteriostatic [15]: Bacteriostatic; Δlog2 CFU/mL [15]: 1.04
8 | O=C(Nc1nnc(-c2cccc(Cl)c2)o1)c1ccc(SC(F)(F)F)cc1 [HSGN-204, N-(5-(3-chlorophenyl)-1,3,4-oxadiazol-2-yl)-4-((trifluoromethyl)thio)benzamide] | 0.25 (≈ 0.625 µM) | 0.03 (≈ 0.075 µM) | 0.125 (≈ 0.313 µM) | 0.125 (≈ 0.313 µM) | 0.125 (≈ 0.313 µM) | 0.03 (≈ 0.075 µM) | 0.003 (≈ 0.0075 µM) | 0.015 (≈ 0.0375 µM) | 0.25 (≈ 0.625 µM) | 0.003 (≈ 0.0075 µM) | 0.03 (≈ 0.075 µM) | 0.007 (≈ 0.0175 µM) | 0.007 (≈ 0.0175 µM) | 0.25 (≈ 0.625 µM) | –
